Source: ChEMBL document CHEMBL2429864, “Synthesis and antimicrobial evaluation of 1,3,4-oxadiazole-based chalcone derivatives” (2013)
In brackets after ≈: the same amount, converted by molar mass.

Experiments:
Assay type in all cases: functional
Aspergillus niger = assay: Antifungal activity against Aspergillus niger ATCC 1015
Candida albicans = assay: Antifungal activity against Candida albicans ATCC 10231
Pseudomonas aeruginosa = assay: Antibacterial activity against Pseudomonas aeruginosa ATCC 27853 by micro dilution/broth titre method
Escherichia coli = assay: Antibacterial activity against Escherichia coli ATCC 25922 by micro dilution/broth titre method
Enterococcus faecalis = assay: Antibacterial activity against Enterococcus faecalis ATCC 29212 by micro dilution/broth titre method
Staphylococcus aureus = assay: Antibacterial activity against Staphylococcus aureus ATCC 25923 by micro dilution/broth titre method

For `CN(C)c1ccc(/C=C\C(=O)c2ccc(NC(=O)CSc3nnc(-c4cccc([N+](=O)[O-])c4)o3)cc2)cc1`, the MIC (Aspergillus niger) was 125 µg/mL (≈ 236 µM), the MIC (Candida albicans) was 62.5 µg/mL (≈ 118 µM) and the MIC (Pseudomonas aeruginosa) was 62.5 µg/mL (≈ 118 µM). The MIC (Escherichia coli) was 31.2 µg/mL (≈ 59 µM), the MIC (Enterococcus faecalis) was 125 µg/mL (≈ 236 µM) and the MIC (Staphylococcus aureus) was 31.2 µg/mL (≈ 59 µM).
Work on `O=C(CSc1nnc(-c2cccc([N+](=O)[O-])c2)o1)Nc1ccc(C(=O)/C=C\c2ccccc2O)cc1` yielded an MIC (Aspergillus niger) of 125 µg/mL (≈ 249 µM), an MIC (Candida albicans) of 125 µg/mL (≈ 249 µM) and an MIC (Pseudomonas aeruginosa) of 62.5 µg/mL (≈ 124 µM). The MIC (Escherichia coli) was 62.5 µg/mL (≈ 124 µM), the MIC (Enterococcus faecalis) was 125 µg/mL (≈ 249 µM) and the MIC (Staphylococcus aureus) was 62.5 µg/mL (≈ 124 µM).
In the case of `COc1ccc(/C=C\C(=O)c2ccc(NC(=O)CSc3nnc(-c4cccc([N+](=O)[O-])c4)o3)cc2)cc1`, the MIC (Aspergillus niger) was 125 µg/mL (≈ 242 µM), the MIC (Candida albicans) was 125 µg/mL (≈ 242 µM) and the MIC (Pseudomonas aeruginosa) was 62.5 µg/mL (≈ 121 µM). It also gave an MIC (Escherichia coli) of 62.5 µg/mL (≈ 121 µM), an MIC (Enterococcus faecalis) of 125 µg/mL (≈ 242 µM) and an MIC (Staphylococcus aureus) of 62.5 µg/mL (≈ 121 µM).
In the case of `COc1ccc(OC)c(/C=C\C(=O)c2ccc(NC(=O)CSc3nnc(-c4cccc([N+](=O)[O-])c4)o3)cc2)c1`, the MIC (Aspergillus niger) was 125 µg/mL (≈ 229 µM), the MIC (Candida albicans) was 125 µg/mL (≈ 229 µM) and the MIC (Pseudomonas aeruginosa) was 62.5 µg/mL (≈ 114 µM). For the same molecule, the MIC (Escherichia coli) was 62.5 µg/mL (≈ 114 µM), the MIC (Enterococcus faecalis) was 125 µg/mL (≈ 229 µM) and the MIC (Staphylococcus aureus) was 62.5 µg/mL (≈ 114 µM).
With `O=C(CSc1nnc(-c2cccc([N+](=O)[O-])c2)o1)Nc1ccc(C(=O)/C=C\c2c(O)ccc3ccccc23)cc1` the MIC (Aspergillus niger) was 62.5 µg/mL (≈ 113 µM), the MIC (Candida albicans) was 62.5 µg/mL (≈ 113 µM) and the MIC (Pseudomonas aeruginosa) was 62.5 µg/mL (≈ 113 µM). For the same molecule, the MIC (Escherichia coli) was 62.5 µg/mL (≈ 113 µM), the MIC (Enterococcus faecalis) was 62.5 µg/mL (≈ 113 µM) and the MIC (Staphylococcus aureus) was 62.5 µg/mL (≈ 113 µM).
`O=C(CSc1nnc(-c2cccc([N+](=O)[O-])c2)o1)Nc1ccc(C(=O)/C=C\c2ccc(Cl)cc2)cc1` showed an MIC (Aspergillus niger) of 62.5 µg/mL (≈ 120 µM), an MIC (Candida albicans) of 62.5 µg/mL (≈ 120 µM) and an MIC (Pseudomonas aeruginosa) of 31.2 µg/mL (≈ 60 µM). For the same molecule, the MIC (Escherichia coli) was 62.5 µg/mL (≈ 120 µM), the MIC (Enterococcus faecalis) was 62.5 µg/mL (≈ 120 µM) and the MIC (Staphylococcus aureus) was 62.5 µg/mL (≈ 120 µM).
`O=C(CSc1nnc(-c2cccc([N+](=O)[O-])c2)o1)Nc1ccc(C(=O)/C=C\c2ccc(O)cc2)cc1` gave an MIC (Aspergillus niger) of 62.5 µg/mL (≈ 124 µM), an MIC (Candida albicans) of 62.5 µg/mL (≈ 124 µM) and an MIC (Pseudomonas aeruginosa) of 31.2 µg/mL (≈ 62.2 µM). The MIC (Escherichia coli) was 31.2 µg/mL (≈ 62.2 µM), the MIC (Enterococcus faecalis) was 125 µg/mL (≈ 249 µM) and the MIC (Staphylococcus aureus) was 125 µg/mL (≈ 249 µM).
`COc1cc(/C=C\C(=O)c2ccc(NC(=O)CSc3nnc(-c4cccc([N+](=O)[O-])c4)o3)cc2)ccc1O` gave an MIC (Aspergillus niger) of 250 µg/mL (≈ 469 µM), an MIC (Candida albicans) of 250 µg/mL (≈ 469 µM) and an MIC (Pseudomonas aeruginosa) of 62.5 µg/mL (≈ 117 µM). It also gave an MIC (Escherichia coli) of 31.2 µg/mL (≈ 58.7 µM), an MIC (Enterococcus faecalis) of 62.5 µg/mL (≈ 117 µM) and an MIC (Staphylococcus aureus) of 62.5 µg/mL (≈ 117 µM).
For `O=C(CSc1nnc(-c2cccc([N+](=O)[O-])c2)o1)Nc1ccc(C(=O)/C=C\c2ccc([N+](=O)[O-])cc2)cc1`, the MIC (Aspergillus niger) was 250 µg/mL (≈ 470 µM), the MIC (Candida albicans) was 250 µg/mL (≈ 470 µM) and the MIC (Pseudomonas aeruginosa) was 62.5 µg/mL (≈ 118 µM). It also gave an MIC (Escherichia coli) of 31.2 µg/mL (≈ 58.8 µM), an MIC (Enterococcus faecalis) of 62.5 µg/mL (≈ 118 µM) and an MIC (Staphylococcus aureus) of 62.5 µg/mL (≈ 118 µM).
With `O=C(CSc1nnc(-c2cccc([N+](=O)[O-])c2)o1)Nc1ccc(C(=O)/C=C\c2ccc(Br)cc2)cc1` the MIC (Aspergillus niger) was 250 µg/mL (≈ 442 µM), the MIC (Candida albicans) was 250 µg/mL (≈ 442 µM) and the MIC (Pseudomonas aeruginosa) was 62.5 µg/mL (≈ 111 µM). It also gave an MIC (Escherichia coli) of 62.5 µg/mL (≈ 111 µM), an MIC (Enterococcus faecalis) of 62.5 µg/mL (≈ 111 µM) and an MIC (Staphylococcus aureus) of 62.5 µg/mL (≈ 111 µM).
`COc1ccc(/C=C\C(=O)c2ccc(NC(=O)CSc3nnc(-c4cccc([N+](=O)[O-])c4)o3)cc2)cc1OC` was tested, and the MIC (Aspergillus niger) was 500 µg/mL (≈ 915 µM), the MIC (Candida albicans) was 500 µg/mL (≈ 915 µM) and the MIC (Pseudomonas aeruginosa) was 62.5 µg/mL (≈ 114 µM). It also gave an MIC (Escherichia coli) of 62.5 µg/mL (≈ 114 µM), an MIC (Enterococcus faecalis) of 31.2 µg/mL (≈ 57.2 µM) and an MIC (Staphylococcus aureus) of 62.5 µg/mL (≈ 114 µM).
`O=C(CSc1nnc(-c2cccc([N+](=O)[O-])c2)o1)Nc1ccc(C(=O)/C=C\c2ccccc2[N+](=O)[O-])cc1` showed an MIC (Aspergillus niger) of 250 µg/mL (≈ 470 µM), an MIC (Candida albicans) of 250 µg/mL (≈ 470 µM) and an MIC (Pseudomonas aeruginosa) of 62.5 µg/mL (≈ 118 µM). It also gave an MIC (Escherichia coli) of 62.5 µg/mL (≈ 118 µM), an MIC (Enterococcus faecalis) of 125 µg/mL (≈ 235 µM) and an MIC (Staphylococcus aureus) of 125 µg/mL (≈ 235 µM).
With `O=C(CSc1nnc(-c2cccc([N+](=O)[O-])c2)o1)Nc1ccc(C(=O)/C=C\c2ccccc2)cc1` the MIC (Aspergillus niger) was 125 µg/mL (≈ 257 µM), the MIC (Candida albicans) was 250 µg/mL (≈ 514 µM) and the MIC (Pseudomonas aeruginosa) was 62.5 µg/mL (≈ 128 µM). It also gave an MIC (Escherichia coli) of 31.2 µg/mL (≈ 64.2 µM), an MIC (Enterococcus faecalis) of 31.2 µg/mL (≈ 64.2 µM) and an MIC (Staphylococcus aureus) of 31.2 µg/mL (≈ 64.2 µM).
Molecule `COc1cc(/C=C\C(=O)c2ccc(NC(=O)CSc3nnc(-c4cccc([N+](=O)[O-])c4)o3)cc2)cc(OC)c1OC` has an MIC (Aspergillus niger) of 125 µg/mL (≈ 217 µM), an MIC (Candida albicans) of 250 µg/mL (≈ 434 µM) and an MIC (Pseudomonas aeruginosa) of 62.5 µg/mL (≈ 108 µM). It also gave an MIC (Escherichia coli) of 62.5 µg/mL (≈ 108 µM), an MIC (Enterococcus faecalis) of 62.5 µg/mL (≈ 108 µM) and an MIC (Staphylococcus aureus) of 62.5 µg/mL (≈ 108 µM).
`O=C(O)c1cn(C2CC2)c2cc(N3CCNCC3)c(F)cc2c1=O` [CIPROFLOXACIN] was tested, and the MIC (Pseudomonas aeruginosa) was 125 µg/mL (≈ 377 µM), the MIC (Escherichia coli) was 125 µg/mL (≈ 377 µM) and the MIC (Enterococcus faecalis) was 125 µg/mL (≈ 377 µM). The MIC (Staphylococcus aureus) was 62.5 µg/mL (≈ 189 µM).
`OC(Cn1cncn1)(Cn1cncn1)c1ccc(F)cc1F` [FLUCONAZOLE] gave an MIC (Aspergillus niger) of 62.5 µg/mL (≈ 204 µM) and an MIC (Candida albicans) of 125 µg/mL (≈ 408 µM).
